Reference: the NIST ThermoML archive (doi:10.1016/j.jct.2016.09.013)

Settings: Liquid; for viscosity: Concentric cylinders viscometry

CCCCn1cc[n+](C)c1.COP(=O)([O-])OC [1-butyl-3-methyl-1H-imidazolium dimethylphosphate]
101.33 kPa
Settings | viscosity [mPa·s]
293.15 K | 760.4
303.15 K | 369.3
313.15 K | 198.8
323.15 K | 116.4
333.15 K | 72.97
343.15 K | 48.45
353.15 K | 33.76
363.15 K | 24.48
373.15 K | 18.37

Settings | mass density [kg/m3]
293.15 K, 101.33 kPa, Vibrating tube method | 1167.3
303.15 K, 101.33 kPa, Vibrating tube method | 1160.2
311.4 K, 10000 kPa, Bellows volumetry | 1159.3
311.4 K, 20000 kPa, Bellows volumetry | 1163.7
311.4 K, 30000 kPa, Bellows volumetry | 1168.1
311.4 K, 40000 kPa, Bellows volumetry | 1172.2
311.4 K, 50000 kPa, Bellows volumetry | 1176.4
311.4 K, 60000 kPa, Bellows volumetry | 1180.3
311.4 K, 70000 kPa, Bellows volumetry | 1183.9
311.4 K, 80000 kPa, Bellows volumetry | 1187.7
311.4 K, 90000 kPa, Bellows volumetry | 1191.3
311.4 K, 100000 kPa, Bellows volumetry | 1194.7
311.4 K, 110000 kPa, Bellows volumetry | 1198.1
311.4 K, 120000 kPa, Bellows volumetry | 1201.4
311.4 K, 130000 kPa, Bellows volumetry | 1204.7
311.4 K, 140000 kPa, Bellows volumetry | 1207.7
311.4 K, 150000 kPa, Bellows volumetry | 1210.8
311.4 K, 160000 kPa, Bellows volumetry | 1213.7
311.4 K, 170000 kPa, Bellows volumetry | 1216.7
311.4 K, 180000 kPa, Bellows volumetry | 1219.6
311.4 K, 190000 kPa, Bellows volumetry | 1222.5
311.4 K, 200000 kPa, Bellows volumetry | 1225.3
313.15 K, 101.33 kPa, Vibrating tube method | 1153.4
323.15 K, 101.33 kPa, Vibrating tube method | 1146.8
331.3 K, 10000 kPa, Bellows volumetry | 1146.1
331.3 K, 20000 kPa, Bellows volumetry | 1150.8
331.3 K, 30000 kPa, Bellows volumetry | 1155.4
331.3 K, 40000 kPa, Bellows volumetry | 1159.8
331.3 K, 50000 kPa, Bellows volumetry | 1164.2
331.3 K, 60000 kPa, Bellows volumetry | 1168.3
331.3 K, 70000 kPa, Bellows volumetry | 1172.1
331.3 K, 80000 kPa, Bellows volumetry | 1176
331.3 K, 90000 kPa, Bellows volumetry | 1179.6
331.3 K, 100000 kPa, Bellows volumetry | 1183.1
331.3 K, 110000 kPa, Bellows volumetry | 1186.6
331.3 K, 120000 kPa, Bellows volumetry | 1190.1
331.3 K, 130000 kPa, Bellows volumetry | 1193.4
331.3 K, 140000 kPa, Bellows volumetry | 1196.6
331.3 K, 150000 kPa, Bellows volumetry | 1199.8
331.3 K, 160000 kPa, Bellows volumetry | 1202.9
331.3 K, 170000 kPa, Bellows volumetry | 1205.9
331.3 K, 180000 kPa, Bellows volumetry | 1208.9
331.3 K, 190000 kPa, Bellows volumetry | 1212.6
331.3 K, 200000 kPa, Bellows volumetry | 1214.8
333.15 K, 101.33 kPa, Vibrating tube method | 1140.3
343.15 K, 101.33 kPa, Vibrating tube method | 1133.7
351.6 K, 10000 kPa, Bellows volumetry | 1133.7
351.6 K, 20000 kPa, Bellows volumetry | 1138.4
351.6 K, 30000 kPa, Bellows volumetry | 1143.3
351.6 K, 40000 kPa, Bellows volumetry | 1147.9
351.6 K, 50000 kPa, Bellows volumetry | 1152.4
351.6 K, 60000 kPa, Bellows volumetry | 1156.7
351.6 K, 70000 kPa, Bellows volumetry | 1160.9
351.6 K, 80000 kPa, Bellows volumetry | 1164.9
351.6 K, 90000 kPa, Bellows volumetry | 1168.6
351.6 K, 100000 kPa, Bellows volumetry | 1172.3
351.6 K, 110000 kPa, Bellows volumetry | 1175.9
351.6 K, 120000 kPa, Bellows volumetry | 1179.7
351.6 K, 130000 kPa, Bellows volumetry | 1183.1
351.6 K, 140000 kPa, Bellows volumetry | 1186.4
351.6 K, 150000 kPa, Bellows volumetry | 1189.6
351.6 K, 160000 kPa, Bellows volumetry | 1192.8
351.6 K, 170000 kPa, Bellows volumetry | 1196.1
351.6 K, 180000 kPa, Bellows volumetry | 1199.1
351.6 K, 190000 kPa, Bellows volumetry | 1202.1
351.6 K, 200000 kPa, Bellows volumetry | 1205.1
353.15 K, 101.33 kPa, Vibrating tube method | 1127.2
363.15 K, 101.33 kPa, Vibrating tube method | 1120.7
371.6 K, 10000 kPa, Bellows volumetry | 1120.8
371.6 K, 20000 kPa, Bellows volumetry | 1126.1
371.6 K, 30000 kPa, Bellows volumetry | 1131.3
371.6 K, 40000 kPa, Bellows volumetry | 1136.2
371.6 K, 50000 kPa, Bellows volumetry | 1140.9
371.6 K, 60000 kPa, Bellows volumetry | 1145.4
371.6 K, 70000 kPa, Bellows volumetry | 1149.7
371.6 K, 80000 kPa, Bellows volumetry | 1153.9
371.6 K, 90000 kPa, Bellows volumetry | 1157.9
371.6 K, 100000 kPa, Bellows volumetry | 1161.8
371.6 K, 110000 kPa, Bellows volumetry | 1165.7
371.6 K, 120000 kPa, Bellows volumetry | 1169.4
371.6 K, 130000 kPa, Bellows volumetry | 1173.1
371.6 K, 140000 kPa, Bellows volumetry | 1176.4
371.6 K, 150000 kPa, Bellows volumetry | 1179.7
371.6 K, 160000 kPa, Bellows volumetry | 1183
371.6 K, 170000 kPa, Bellows volumetry | 1186.3
371.6 K, 180000 kPa, Bellows volumetry | 1189.4
371.6 K, 190000 kPa, Bellows volumetry | 1192.5
371.6 K, 200000 kPa, Bellows volumetry | 1195.6
373.15 K, 101.33 kPa, Vibrating tube method | 1114.2
